In PubChem BioAssay AID743355 (Broad Institute, 2014):
Activity calls are given as the source filed them.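 Rule for the calls: active = signal drop with a fitted AC50 at or under twice the sample's highest valid dose; inconclusive = flat fit with signal down 30 to 70%, or poor fit; inactive = the rest, including signal rising.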

system: not listed separately; test: viability loss in A549 lung cells – cell-based, luminescence, dry powder, set 9, cytotoxicity control, dose response (AID 743355); details: A549 viability, CellTiter-Glo ATP luminescence, 72 h; at 12 µM (top of the series)

SMILES	normalized CellTiter-Glo signal change (more negative = more cytotoxic)
N#Cc1ccc(N2CCN(C(=O)c3ccc4c(c3)OCO4)CC2)cc1	-5.47% (inactive)

same assay, conditions: A549 viability, CellTiter-Glo ATP luminescence, 72 h; at 26 µM (top of the series)

SMILES	normalized CellTiter-Glo signal change (more negative = more cytotoxic)
CC(=O)c1ccc(N2CCN(C(=O)c3ccc4c(c3)OCO4)CC2)cc1	-7.97% (inactive)
CC(=O)c1ccc(N2CCN(C(=O)c3cc4c(cc3Cl)OCO4)CC2)cc1	2.51% (inactive)
O=C(c1ccc2c(c1)OCO2)N1CCN(c2ccc(C(F)(F)F)cc2)CC1	1.09% (inactive)
CC(=O)c1ccc(N2CCN(C(=O)c3ccc4c(c3)OC(F)(F)O4)CC2)cc1	-2.42% (inactive)
CC(=O)c1ccc(N2CCN(C(=O)c3ccc4ocnc4c3)CC2)cc1	4.94% (inactive)
COc1cc2c(cc1C(=O)N1CCN(c3ccc(C(C)=O)cc3)CC1)OCO2	-2.21% (inactive)
CN(C)S(=O)(=O)c1ccc(N2CCN(C(=O)c3ccc4c(c3)OCO4)CC2)cc1	-6.83% (inactive)
CC(=O)c1ccc(N2CCN(C(=O)Nc3ccc4c(c3)OCO4)CC2)cc1	-14.7% (inactive)
CS(=O)(=O)c1ccc(N2CCN(C(=O)c3ccc4c(c3)OCO4)CC2)cc1	-1.14% (inactive)
CC(=O)c1ccc(N2CCN(C(=O)c3cc4c(cn3)OCO4)CC2)cc1	-11.9% (inactive)
CC(=O)c1ccc(N2CCN(C(=O)c3cccc4c3OCO4)CC2)cc1	2.91% (inactive)
COc1ccc(C(=O)N2CCN(c3ccc(C(C)=O)cc3)CC2)cc1OC	51.5% (inactive)
CC(=O)c1ccc(N2CCN(C(=O)c3cc(Cl)c4c(c3)OCO4)CC2)cc1	6.94% (inactive)
CC(=O)c1ccc(N2CCN(C(=O)c3ccc4snnc4c3)CC2)cc1	-3.89% (inactive)
CC(=O)c1ccc(N2CCCN(C(=O)c3ccc4c(c3)OCO4)CC2)cc1	9.8% (inactive)
CC(=O)c1ccc(N2CCN(C(=O)c3ccc4c(c3)OC(C)(C)O4)CC2)cc1	5.78% (inactive)
CC(=O)c1ccc(N2CCN(C(=O)c3ccc(Cl)c(Cl)c3)CC2)cc1	5.05% (inactive)
CC(=O)c1ccc(N2CCN(S(=O)(=O)c3ccc4c(c3)OCO4)CC2)cc1	-10.1% (inactive)
CC(=O)c1ccc(N2CCN(C(=O)c3ccc4c(c3C)OCO4)CC2)cc1	-3.63% (inactive)
O=C(c1ccc2c(c1)OCO2)N1CCN(c2ccc(S(=O)(=O)C(F)(F)F)cc2)CC1	21.5% (inactive)
CC(=O)c1ccc(N2CC3CC2CN3C(=O)c2ccc3c(c2)OCO3)cc1 (stereo unspecified)	-9.16% (inactive)
O=C(c1ccc2c(c1)OCO2)N1CCN(c2ccc(S(=O)(=O)C(F)F)cc2)CC1	17.7% (inactive)
CC(=O)c1ccc(N2CCN(C(=O)c3cc4c(cc3C)OCO4)CC2)cc1	1.8% (inactive)
O=C(c1ccc2c(c1)OCO2)N1CCN(c2ccc(OC(F)(F)F)cc2)CC1	6.83% (inactive)

system: A549 viability, CellTiter-Glo ATP luminescence, 72 h; test: as above; details: not given

SMILES	AC50
COc1cc(C(=O)N2CCN(c3ccc(C(C)=O)cc3)CC2)cc2c1OCO2	> 52 µM (inactive)
